According to patent publication US20100249223A1, “NEW USE FOR CANNABINOID-CONTAINING PLANT EXTRACTS” (priority 2007, published 2010):
Read-outs that look alike come from different tables or passages of the source.

Assays:
TRPV1 channel = molecular target: T1, TRPV1 channel (Rattus norvegicus, UniProt O35433); assay: Intracellular Ca2+ elevation in HEK-293 cells over-expressing rat TRPV1; type: cell-based; conditions: for Emax: HEK293, read-out: Maximal response (% ionomycin)
T1 construct: expressed in transfected cells
Protocol: (§1) The applicants have conducted experiments using cannabinoid-containing plant extracts on rat recombinant TRPV1, TRPM8 channels and TRPA1 (also known as ANKTM1) channels, both were stably expressed in HEK293 cells. […] The TRPM8 channel is the receptor from menthol and icilin. The intracellular Ca^2+ concentration was determined before and after the addition of various concentrations of test compounds.
(§2) For the experiments with the TRPM8 channels menthol and icilin were used to activate the channels. For the experiments with the TRPV1 channels ionomycin was used to activate the channels. The cannabinoid-containing plant extracts were produced from cannabis plants using the subcritical CO2 extraction technique as described in the applicants granted United Kingdom patent GB2391865. The cannabinoids were then purified further using the method disclosed in the applicants granted United Kingdom patent GB2393721 to produce substantially pure cannabinoids. Un-purified plant extracts of THC and CBD were also tested in the experiments with the TRPA1 channels.
(§3) HEK293 (human embryonic kidney) cells were plated on 100 mm diameter Petri dishes and transfected at about 80% confluence with Lipofectamine 2000 (Invitrogen) using a plasmid containing the rat TRPA1, TRPV1 or TRPM8 cDNA, according to the manufacturer's protocol. A stably transfected clone was selected by Geneticin G-418 (Invitrogen) 600 μg/ml. Stable transfection was checked by quantitative real time-PCR (RT-PCR).
(§4) TRPA/TRPV1/TRPM8-HEK-293 cells were plated on 100 mm diameter Petri dishes and after 3 days loaded for 1 hour at room temperature with the cytoplasmic calcium indicator Fluo-4-AM (4 μM, Molecular Probes) dissolved in Tyrode' buffer (NaCl 145 mM; KCl 2.5 mM; CaCl2 1.5 mM; MgCl2 1.2 mM; D-Glucose 10 mM; HEPES 10 mM pH 7.4) containing Pluronic (0.02%, Molecular Probes). The cells were washed twice in Tyrode buffer, resuspended and transferred to the quartz cuvette of the spectrofluorimeter (Perkin-Elmer LS 50B) (λ excitation=488 nm; λ emission=516 nm). Intracellular Ca^2+ concentration was determined before and after the addition of various concentrations of test compounds. EC50 values were determined as the concentration of test substances required to produce half-maximal increases in intracellular Ca^2+ concentration. Curve fitting and parameter estimation was performed with Graph Pad Prism®. The same compounds were tested also on non-transfected HEK 293 cells.

TRPA1 channel = molecular target: T2, TRPA1 channel (Rattus norvegicus, UniProt Q6RI86); assay: Intracellular Ca2+ elevation in HEK-293 cells over-expressing rat TRPA1; type: cell-based
T2 construct: expressed in transfected cells
Protocol: as §1, §2, §3, §4

[1] = HEK293, TRPA1-HEK-293 cells, relative to mustard oil 100 μM, read-out: Maximal response (% of mustard oil 100 μM)
[2] = TRPA1-HEK-293 cells, Fluo-4, read-out: -logEC50% (M) for the elevation of [Ca2+]i (converted)
[3] = TRPA1, summary of Table 1, read-out: EC50 values (range given)

T1 sequence (O35433 whole entry): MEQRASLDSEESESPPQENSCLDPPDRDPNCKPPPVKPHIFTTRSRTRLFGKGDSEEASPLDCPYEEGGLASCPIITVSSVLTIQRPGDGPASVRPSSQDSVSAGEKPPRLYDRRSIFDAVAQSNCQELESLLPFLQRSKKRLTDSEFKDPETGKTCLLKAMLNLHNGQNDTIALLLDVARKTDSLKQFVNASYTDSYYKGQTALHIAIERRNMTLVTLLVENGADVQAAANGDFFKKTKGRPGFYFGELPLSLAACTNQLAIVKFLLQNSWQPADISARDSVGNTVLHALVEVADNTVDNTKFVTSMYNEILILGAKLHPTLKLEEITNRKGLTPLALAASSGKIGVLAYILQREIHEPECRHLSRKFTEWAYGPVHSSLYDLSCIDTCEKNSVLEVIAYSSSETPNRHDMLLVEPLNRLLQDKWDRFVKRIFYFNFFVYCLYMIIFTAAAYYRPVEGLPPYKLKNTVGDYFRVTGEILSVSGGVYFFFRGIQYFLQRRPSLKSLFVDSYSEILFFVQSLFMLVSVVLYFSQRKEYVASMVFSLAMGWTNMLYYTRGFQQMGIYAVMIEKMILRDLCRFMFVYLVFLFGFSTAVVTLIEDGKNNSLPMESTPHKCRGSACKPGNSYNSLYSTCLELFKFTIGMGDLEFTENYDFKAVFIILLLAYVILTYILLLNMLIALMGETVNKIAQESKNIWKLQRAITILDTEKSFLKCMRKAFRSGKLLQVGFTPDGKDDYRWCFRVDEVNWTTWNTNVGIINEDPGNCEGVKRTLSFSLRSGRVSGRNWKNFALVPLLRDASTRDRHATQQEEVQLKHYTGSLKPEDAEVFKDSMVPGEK
T2 sequence (Q6RI86 whole entry): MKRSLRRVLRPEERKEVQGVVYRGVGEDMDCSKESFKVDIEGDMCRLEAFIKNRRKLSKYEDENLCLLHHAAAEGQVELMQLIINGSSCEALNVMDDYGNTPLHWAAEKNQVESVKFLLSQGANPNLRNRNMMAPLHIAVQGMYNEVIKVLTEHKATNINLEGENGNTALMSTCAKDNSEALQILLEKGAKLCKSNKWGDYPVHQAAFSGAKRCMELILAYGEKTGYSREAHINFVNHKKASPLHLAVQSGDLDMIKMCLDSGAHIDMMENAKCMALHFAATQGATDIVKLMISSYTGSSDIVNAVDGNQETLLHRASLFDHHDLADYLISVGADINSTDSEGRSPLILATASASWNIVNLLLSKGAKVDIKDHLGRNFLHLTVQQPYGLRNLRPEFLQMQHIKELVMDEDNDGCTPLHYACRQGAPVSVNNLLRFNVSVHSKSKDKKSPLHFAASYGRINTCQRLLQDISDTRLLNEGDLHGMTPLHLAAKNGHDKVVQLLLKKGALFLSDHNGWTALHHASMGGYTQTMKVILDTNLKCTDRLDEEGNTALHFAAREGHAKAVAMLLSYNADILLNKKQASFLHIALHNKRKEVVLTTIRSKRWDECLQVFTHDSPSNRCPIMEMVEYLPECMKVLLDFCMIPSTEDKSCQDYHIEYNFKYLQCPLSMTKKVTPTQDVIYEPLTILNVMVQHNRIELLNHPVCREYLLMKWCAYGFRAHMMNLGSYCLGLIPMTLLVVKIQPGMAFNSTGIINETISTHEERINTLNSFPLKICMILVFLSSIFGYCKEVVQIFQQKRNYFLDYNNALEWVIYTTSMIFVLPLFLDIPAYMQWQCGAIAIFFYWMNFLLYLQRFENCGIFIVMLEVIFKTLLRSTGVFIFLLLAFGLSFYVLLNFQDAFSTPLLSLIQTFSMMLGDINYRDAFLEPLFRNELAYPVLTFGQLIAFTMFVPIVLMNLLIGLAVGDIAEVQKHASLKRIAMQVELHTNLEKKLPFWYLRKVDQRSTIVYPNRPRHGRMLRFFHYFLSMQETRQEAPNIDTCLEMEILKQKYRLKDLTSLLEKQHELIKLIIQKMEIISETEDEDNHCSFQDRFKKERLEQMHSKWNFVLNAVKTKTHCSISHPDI

CCCCCc1cc(O)c2c(c1)OC(C)(CCC=C(C)C)C=C2 (centres unmarked) [CBC, cannabichromene]
EC50 (TRPV1 channel): 24200 nM | Emax (TRPV1 channel): 9 ± 4.9% | Emax (TRPA1 channel; [1]): 118 ± 10% | EC50 (TRPA1 channel; [2]): 3.31e-08 M | EC50 (TRPA1 channel; [3]): 6e-08 to 1e-07 M

C=C(C)[C@@H]1CCC(C)=C[C@H]1c1c(O)cc(CCCCC)cc1O [CBD, cannabidiol]
EC50 (TRPV1 channel): 700 nM | Emax (TRPV1 channel): 50 ± 1% | Emax (TRPA1 channel; [1]): 86.9 ± 8% | EC50 (TRPA1 channel; [2]): 8.51e-08 M | EC50 (TRPA1 channel; [3]): 6e-08 to 1e-07 M

C=C(C)[C@@H]1CCC(C)=C[C@H]1c1c(O)cc(CCCCC)c(C(=O)O)c1O [CBDA, cannabidiolic acid]
Emax (TRPA1 channel; [1]): 48.2 ± 6% | EC50 (TRPA1 channel; [2]): 8.13e-07 M

C=C(C)[C@@H]1CCC(C)=C[C@H]1c1c(O)cc(CCC)cc1O [CBDV, cannabidivarin]
EC50 (TRPV1 channel): 1400 nM | Emax (TRPV1 channel): 19.8 ± 1.9%

CCCCCc1cc(O)c(C/C=C(\C)CCC=C(C)C)c(O)c1 [CBG, cannabigerol]
EC50 (TRPV1 channel): 1000 nM | Emax (TRPV1 channel): 54.4 ± 5.4%

COc1cc(CNC(=O)CCCC/C=C/C(C)C)ccc1O [Capsaicin, reference compound]
Emax (TRPV1 channel): 68.6 ± 1.2%

O=CC=Cc1ccccc1 [Cinnamaldehyde, cinnamaldehyde, reference compound]
Emax (TRPA1 channel; [1]): 99.1 ± 9% | EC50 (TRPA1 channel; [2]): 1.29e-05 M

C=CCN=C=S [Mustard oil (allyl isothiocyanate), allyl isothiocyanate, reference compound]
Emax at 100 µM (TRPA1 channel; [1]): 100 ± 11%

CCCCCc1cc(O)c2c(c1)OC(C)(C)[C@@H]1CCC(C)=C[C@@H]21 [THC, tetrahydrocannabinol]
Emax (TRPA1 channel; [1]): 117 ± 12% | EC50 (TRPA1 channel; [2]): 1.86e-07 M

CCCCCc1cc2c(c(O)c1C(=O)O)[C@@H]1C=C(C)CC[C@H]1C(C)(C)O2 [THCA, tetrahydrocannabinolic acid]
Maximal response (% of mustard oil 100 μM) (TRPA1 channel; TRPA1-HEK-293 cells, relative to mustard oil 100 μM): 70.1 ± 8%
